Converted amounts (≈) assume the structure as drawn.
How the values were obtained:
Anas platyrhynchos = details: short-term; oral; feed; mortality
Apis mellifera = details: acute, mortality
Colinus virginianus = details: for LD50: acute, oral, mortality
Danio rerio = details: subchronic; duration: 35 days; reproduction
Daphnia magna = details: chronic/long-term; duration: 21 days; reproduction
Folsomia candida = details: chronic/long-term; mortality
Mus musculus = details: chronic
Oncorhynchus mykiss = details: acute; duration: 96 hours; mortality
Oryctolagus sp. = details: developmental; development
Rattus norvegicus = details: oral
Tagia sp. = details: chronic/long-term; growth
Aphidius rhopalosiphi = test: LR50; higher = less toxic; details: not reported; mortality

Which results are given for `O=C(Nc1ccccc1)Nc1ccnc(Cl)c1` [Forchlorfenuron]?
LD50 (Anas platyrhynchos): > 3120 mg/kg-day; LD50 (Apis mellifera; dermal): > 30 µg/piece; LD50 (Apis mellifera; oral, unspecified): > 34.1 µg/piece; LD50 (Colinus virginianus; diet): > 3120 mg/kg-day; LD50 (Colinus virginianus): > 2250 mg/kg-day; NOEC (Colinus virginianus; reproduction developmental): 88.4 mg/kg-day; NOEC (Danio rerio): 1.01 mg/L; NOEC (Daphnia magna): 1.96 mg/L; NOEC (Folsomia candida): 3.72 mg/kg; NOAEL (Mus musculus; duration: 24 months, histopathology: neoplastic): 5 mg/kg-day; NOAEL (Mus musculus; histopathology: nonneoplastic): 4.9 mg/kg-day; LC50 (Oncorhynchus mykiss): 1.93 µg/mL (≈ 7.79 µM); NOAEL (Oryctolagus sp.): 50 mg/kg-day; LD50 (Rattus norvegicus; acute, mortality): 4920 mg/kg-day; NOAEL (Rattus norvegicus; reproduction developmental, diet, body weight): 11 mg/kg-day; NOAEL (Rattus norvegicus; subchronic, duration: 90 days, organ weight): 16.2 mg/kg-day; NOEC (Tagia sp.): 0.3 mg/kg; LR50 (Aphidius rhopalosiphi): > 10 g/ha
